According to patent US12258377B2 (Scancell Limited, priority 2012, dated 2025):
Ends that are not written are not given here.

Legend:
splenocytes [1] = assay: Ex vivo elispot assay on splenocytes of immunised HLA-DR4 transgenic mice; format: in vivo; conditions: 25 μg peptide with CpG and MPLA day 0, peptide 5 μM
Protocol: (§1) C57BL/6 mice (Charles River, UK), HLA-DR4 mice (Taconic, USA), HHDII mice (Pasteur institute, France) and HHDII/DRI mice (Pasteur institute, France) were used, aged between 8 and 12 weeks, and cared for by the staff at Nottingham Trent University. All work was carried out under a Home Office project license. Peptides were dissolved in 10% Dimethylformamide to 1 mg/ml and then emulsified (a series of dilutions) with different adjuvants: CpG and MPLA 6 μg/mouse of each (Invivogen, UK), Incomplete Freund's […] (Sigma, UK), and GMCSF 10 μg/mouse (Peprotech, UK). Peptides (25 μg/mouse) were injected subcutaneously at the base of the tail. DNA (1 μg/mouse) was coated onto 1.0 μm gold particles (BioRad, Hemel Hempstead, UK) using the manufacturer's instructions and administered intradermally by genegun (BioRad). Homspera (10 nM/mouse) (PeptideSynthetics, UK) was injected intradermally with genegun immunisation. Mice were immunized at either day 0 for peptide immunisation or days, 0, 7, and 14 for peptide and genegun immunisation. Spleens were removed for analysis at day 14 for peptide and day 20 for peptide or genegun immunisation unless stated otherwise. 400 μg Anti-CD25 antibody (PC61) was administered i.p. in saline 3 days prior to the immunisation. 200 μg Anti-CTLA-4 antibody (UC 10-4F, 10-11) was administered i.p. in saline at day 7 and 14 with either genegun or peptide immunisation.
(§2) Elispot assays were performed using murine IFNγ, IL-17 and IL-10 capture and detection reagents according to the manufacturer's instructions (Mabtech, Sweden). In brief, anti-IFNγ, IL-17 and IL-10 antibodies were coated onto wells of 96-well Immobilin-P plate. Synthetic peptides (at a variety of concentrations) and 5×10^5 per well splenocytes were added to the wells of the plate in triplicate. Tumour target cells were added where relevant at 5×10^4/well in triplicate and plates incubated for 40 hrs at 37° C. After incubation, captured IFNγ, […], IL-17 and IL-10 were detected by biotinylated anti-IFNγ, IL-17 and IL-10 antibodies and developed with a strepatavidin alkaline phosphatase and chromogenic substrate. Spots were analysed and counted using an automated plate reader (Cellular Technologies Ltd). Functional avidity was calculated as the concentration mediating 50% maximal effector function using a graph of effector function versus peptide concentration.

splenocytes [2] = assay: Ex vivo elispot assay on splenocytes of immunised HLA-DR1 / HLA-A2/DR1 (HHDII/DR1) transgenic mice; format: in vivo; conditions: HLA-A2/DR1 mice
Protocol: as §1, §2

PBMC = assay: Proliferation assay of PBMC from cancer patients; format: cell-based, human; conditions: PBMC stimulated with 10 μg/ml peptide for 4, 7 and 11 days, 3H-thymidine
Protocol: PBMC were isolated from freshly drawn heparinised blood by Ficol-Hypaque (Sigma) gradient centrifugation. PBMC (1.5×10^6 cells/well) were stimulated with single peptides (final concentration 10 μg/ml) in RPMI containing 5% pooled autologous human serum, 2 mM glutamine, 20 mM HEPES and Penicillin-streptomycin (1%) in a final volume of 2 ml. Stimulation with purified protein derivative, PPD (final concentration 10 μg/ml) served as a positive control for the proliferative capacity of PBMC. As a negative control PBMC were incubated with medium alone. The PBMC were cultured at 37° C. in an atmosphere of 5% CO2 for 4, 7 and 11 days. To assess proliferation at these times points 100 μl in triplicate from each culture was aliquoted into a round bottom well of a 96 well plate and ^3H-thymidine added (0.0185 MBq/well) and incubated at 37° C. for a further 8 hours. The cultures were harvested onto unifilter plates and incorporation of ^3H-thymidine was determined by β-scintillation counting. The results were assessed by calculating the stimulation index (SI) as the ratio of the mean of counts per minute (cpm) of epitope-stimulated to the mean of unstimulated cultures. The proliferative assay was considered positive when SI >2.5.

[3] = test system: T2 or B16HHD tumour cells; assay: 51Cr-release assay, vim 65 cit CTL lines against HLA-A2 positive target cells; format: cell-based; conditions: peptide pulsed HLA-A2 positive target cells
Protocol: Target cells were labelled for 1 hr with 1.85 MBq sodium (^51Cr) chromate (Amersham, Essex, UK) with or without 10 μg/ml peptide. Post incubation they were washed 3 times in RPMI. Targets 5×10^3/well of a 96-well V-bottomed plates were set up and co incubated with different densities of effector cells in a final volume of 200 μl of RPMI, 10% FCS (Sigma), 20 mM HEPES buffer, 2 mM L-glutamine, 100 units/ml penicillin and 100 μg/ml streptomycin. After 20 hrs at 37° C., 50 μl of supernatants were removed from each well and transferred to a Lumaplate (Packard, Rigaweg, the Netherlands). Plates were read on a Topcount Microplate Scintillation Counter (Packard). Percentage specific lysis was calculated using the following formula: specific lysis=100×[(experimental release−spontaneous release)/(maximum release−spontaneous release)].

EL4 HHD cells = assay: IFNg elispot of splenocytes against EL4 HHD tumour target cells; format: cell-based, HLA-A2/DR1 transgenic mice; conditions: EL4 HHD over HLA mismatched B16 cells
Protocol: as §2

splenocytes [4] = assay: Ex vivo elispot assay on splenocytes of immunised HLA-DR1 / HLA-A2/DR1 (HHDII/DR1) transgenic mice; format: in vivo; conditions: stimulation with citrullinated peptide; HLA-A2/DR1 mice
[5] = 25 μg citrullinated peptide day 0, day 14

“SAVRLRSSVPGVR [citrullinated vim 65 peptide] (not fully specified; also: citrullinated, positions not given here)” was tested, and the “IL-17 elispot response to citrullinated peptide, mean” value (splenocytes [1]; day 14) was 550 /million splenocytes, the “IL-17 elispot response to wild type peptide, mean” value (splenocytes [1]; day 14) was “no responses” and the “IFNγ elispot response to citrullinated peptide, mean” value (splenocytes [1]; day 14 splenocytes) was 550 /million splenocytes. For the same sequence, the “IFNγ elispot response to wild type peptide, mean” value (splenocytes [1]; day 14 splenocytes) was “no responses”, the “IFNγ elispot response to citrullinated peptide” value (splenocytes [2]; [5]) was “high frequency IFNγ responses” and the “IFNγ elispot response to wild type peptide” value (splenocytes [2]; [5]) was “some cross reactivity to the wild type peptide”. The “IL-10 elispot response to citrullinated peptide” value (splenocytes [2]; [5]) was “Low frequency IL-10 responses”, the “IFNγ response with blockade of MHC class II” value (splenocytes [2]; L243 HLA-DR blocking antibody) was “does not eliminate the citrullinated peptide specific response” and the “patients showing a proliferative response (SI >2.5)” value (PBMC; listed as citrullinated vim 65-77) was 4/9. For the same sequence, the “patients showing a proliferative response (SI >2.5)” value (PBMC; listed as vim 65 cit) was “three of eight”, the “cytotoxicity (chromium release)” value [3] was “cytotoxicity of peptide pulsed HLA-A2 positive target cells” and the “recognition of tumour target cells ex vivo” value (EL4 HHD cells) was “good recognition of transgenic HLA-A2 engineered EL4 cell line (EL4 HHD)”. For the same sequence, the “phenotype of cells producing IFNγ and TNFa (intracellular cytokine staining)” value (splenocytes [4]) was “CD8 positive”.
